Values joined by “and” are separate entries in the source; they are usually repeats but may differ in a detail not shown here. Identical values can stand only once. Toxic doses and inconclusive results are not listed.
Test system: BDF1 mice, P388 leukemia ip, median survival T/C
Assay: NCI In Vivo Anticancer Drug Screen. Data for tumor model P388 Leukemia (intraperitoneal) in B6D2F1 (BDF1) mice
Conditions: endpoint: median survival time, higher = longer survival
Outline: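 Transplantable tumour in mice; compound vs vehicle dosing; survival scored; ratio of treated to control reported.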

[1] = dose: 1.0 mg/kg/injection, schedule: Q01DX009 (ip), vehicle: water
[2] = dose: 2.0 mg/kg/injection, schedule: Q01DX009 (ip), vehicle: water
[3] = dose: 4.0 mg/kg/injection, schedule: Q01DX009 (ip), vehicle: water
[4] = dose: 8.0 mg/kg/injection, schedule: Q01DX009 (ip), vehicle: water
[5] = dose: 50.0 mg/kg/injection, schedule: Q01DX009 (ip), vehicle: saline with Tween-80
[6] = dose: 100.0 mg/kg/injection, schedule: Q01DX009 (ip), vehicle: saline with Tween-80
[7] = dose: 200.0 mg/kg/injection, schedule: Q01DX009 (ip), vehicle: saline with Tween-80
[8] = dose: 100.0 mg/kg/injection, schedule: Q04DX003 (ip), vehicle: saline with Tween-80
[9] = dose: 200.0 mg/kg/injection, schedule: Q04DX003 (ip), vehicle: saline with Tween-80
[10] = dose: 400.0 mg/kg/injection, schedule: Q04DX003 (ip), vehicle: saline with Tween-80
[11] = dose: 50.0 mg/kg/injection, schedule: Q04DX003 (ip), vehicle: saline
[12] = dose: 200.0 mg/kg/injection, schedule: Q04DX003 (ip), vehicle: saline
[13] = dose: 25.0 mg/kg/injection, schedule: Q01DX009 (ip), vehicle: saline with Tween-80

In the case of `CC[n+]1ccc(Nc2ccc(NC(=O)c3ccc(Nc4cc[n+](CC)c5ccc(N)cc45)cc3)cc2)cc1`, the T/C (dose: 0.02 mg/kg/injection, schedule: Q01DX010 (ip), vehicle: saline) is reported as 115 % of control, the T/C (dose: 0.1 mg/kg/injection, schedule: Q01DX010 (ip), vehicle: saline) is reported as 110 % of control and the T/C (dose: 0.5 mg/kg/injection, schedule: Q01DX009 (ip), vehicle: water) is reported as 154 % of control. For the same molecule, the T/C (dose: 0.5 mg/kg/injection, schedule: Q01DX010 (ip), vehicle: saline) was 170 % of control, the T/C [1] was 158 % of control and the T/C (dose: 1.0 mg/kg/injection, schedule: Q01DX010 (ip), vehicle: saline) was 195 % of control. The T/C [2] was 212 % of control, the T/C (dose: 2.0 mg/kg/injection, schedule: Q01DX010 (ip), vehicle: saline) was 275 % of control and the T/C [3] was 250 % of control. For the same molecule, the T/C (dose: 4.0 mg/kg/injection, schedule: Q01DX010 (ip), vehicle: saline) was 120 % of control, the T/C [4] was 116 % of control and the T/C (dose: 8.0 mg/kg/injection, schedule: Q01DX010 (ip), vehicle: saline) was 100 % of control.
In the case of `O=C(c1ccccc1)C(SC(C(=O)c1ccccc1)c1ccccc1)c1ccccc1` (stereo not given), the T/C [5] is reported as 98 % of control, the T/C [6] is reported as 97 % of control and the T/C [7] is reported as 91 % of control.
With `CC(=O)OCC(=O)[C@@]1(O)CC[C@H]2[C@@H]3C[C@H](C)C4=CC(=O)C=C[C@]4(C)[C@H]3[C@@H](O)C[C@@]21C` the T/C [8] was 104 % of control, the T/C [9] was 104 % of control and the T/C [10] was 100 % of control.
`CCSC1(SCC)C(=O)OC2=C(CCCCC2)C1N(C)C` (stereo not given) was tested, and the T/C [5] was 96 % of control, the T/C [6] was 95 % of control and the T/C [7] was 103 % of control.
In the case of `COc1ccc(C)cc1NN`, the T/C (dose: 12.5 mg/kg/injection, schedule: Q01DX009 (ip), vehicle: saline) is reported as 100 % of control, the T/C (dose: 50.0 mg/kg/injection, schedule: Q01DX009 (ip), vehicle: saline) is reported as 100 % of control and the T/C [11] is reported as 109 % of control. For the same molecule, the T/C (dose: 100.0 mg/kg/injection, schedule: Q04DX003 (ip), vehicle: saline) was 104 % of control and the T/C [12] was 95 % of control.
With `CSC(N)=Nc1ccc(C(=O)O)cc1` the T/C [8] was 100 % of control, the T/C [9] was 104 % of control and the T/C [10] was 95 % of control.
With `Cc1cc(O)c(NCCCN(C)C)c2c(=O)c3ccccc3sc12` the T/C [5] was 108 % of control and the T/C [7] was 115 % of control.
In the case of `O=C1C(CCO)SC(=S)N1c1ccccc1` (stereo not given), the T/C [5] is reported as 106 % of control, the T/C [6] is reported as 103 % of control and the T/C [7] is reported as 102 % of control.
In the case of `CCOC(N)=O`, the T/C (dose: 100.0 mg/kg/injection, schedule: Q01DX009 (ip), vehicle: saline) is reported as 120 % of control, the T/C (dose: 125.0 mg/kg/injection, schedule: Q01DX010 (ip), vehicle: saline) is reported as 154 % of control and the T/C (dose: 200.0 mg/kg/injection, schedule: Q01DX009 (ip), vehicle: saline) is reported as 90 % of control. For the same molecule, the T/C (dose: 250.0 mg/kg/injection, schedule: Q01DX010 (ip), vehicle: saline) was 154 % of control, the T/C (dose: 400.0 mg/kg/injection, schedule: Q01DX009 (ip), vehicle: saline) was 100 % of control and the T/C (dose: 500.0 mg/kg/injection, schedule: Q01DX010 (ip), vehicle: saline) was 113 % of control.
With `Cc1cc2c(c3ncccc13)OCN(Cc1ccc(Cl)c(Cl)c1)C2` the T/C (dose: 12.5 mg/kg/injection, schedule: Q01DX009 (ip), vehicle: saline with Tween-80) was 113 % of control, the T/C [13] was 108 % of control and the T/C [5] was 104 % of control.
In the case of `[Ni+2].[SH2+]C([SH2+])=Nc1ccccc1.[SH2+]C([SH2+])=Nc1ccccc1.c1ccc(C[P+](c2ccccc2)(c2ccccc2)c2ccccc2)cc1`, the T/C (dose: 0.5 mg/kg/injection, schedule: Q01DX009 (ip), vehicle: saline) is reported as 115 % of control, the T/C (dose: 1.0 mg/kg/injection, schedule: Q01DX009 (ip), vehicle: saline) is reported as 95 % of control and 120 % of control and the T/C (dose: 1.0 mg/kg/injection, schedule: Q04DX003 (ip), vehicle: other) is reported as 95 % of control. The T/C (dose: 3.0 mg/kg/injection, schedule: Q01DX009 (ip), vehicle: saline) was 118 % of control and 120 % of control, the T/C (dose: 3.0 mg/kg/injection, schedule: Q04DX003 (ip), vehicle: other) was 108 % of control and the T/C (dose: 4.0 mg/kg/injection, schedule: Q01DX009 (ip), vehicle: saline) was 100 % of control. For the same molecule, the T/C (dose: 6.0 mg/kg/injection, schedule: Q01DX009 (ip), vehicle: saline) was 104 % of control and 105 % of control, the T/C (dose: 6.0 mg/kg/injection, schedule: Q04DX003 (ip), vehicle: other) was 95 % of control and the T/C (dose: 9.0 mg/kg/injection, schedule: Q01DX009 (ip), vehicle: saline) was 110 % of control and 118 % of control. For the same molecule, the T/C (dose: 10.0 mg/kg/injection, schedule: Q01DX009 (ip), vehicle: Klucel (hydroxypropylcellulose) (HPC)) was 115 % of control.
`O=C(NCCCCOc1ccc([N+](=O)[O-])cc1Cl)c1ccc(S(=O)(=O)F)cc1` was tested, and the T/C (dose: 50.0 mg/kg/injection, schedule: Q04DX003 (ip), vehicle: saline with Tween-80) was 103 % of control, the T/C [8] was 96 % of control and 112 % of control and the T/C [9] was 106 % of control. For the same molecule, the T/C [10] was 90 % of control and 103 % of control.
With `CCCN(CCC)C(=S)[S-].CCCN(CCC)C(=S)[S-].[Zn]` the T/C (dose: 37.5 mg/kg/injection, schedule: Q04DX003 (ip), vehicle: saline sonified) was 100 % of control, the T/C (dose: 75.0 mg/kg/injection, schedule: Q04DX003 (ip), vehicle: saline sonified) was 100 % of control and the T/C (dose: 150.0 mg/kg/injection, schedule: Q04DX003 (ip), vehicle: saline sonified) was 112 % of control.
In the case of `CCO/C=C/C(=O)NC(=O)OCC`, the T/C [6] is reported as 98 % of control, the T/C [8] is reported as 95 % of control and the T/C [7] is reported as 107 % of control. For the same molecule, the T/C [9] was 95 % of control, the T/C (dose: 400.0 mg/kg/injection, schedule: Q01DX009 (ip), vehicle: saline with Tween-80) was 109 % of control and the T/C [10] was 90 % of control.
In the case of `Cc1c(N)cc([N+](=O)[O-])c(C)c1[N+](=O)[O-]`, the T/C [5] is reported as 95 % of control and the T/C [6] is reported as 90 % of control.
With `N#C[C@@H]1C2C=CC(CC2)[C@H]1C#N` the T/C (dose: 0.29 mg/kg/injection, schedule: Q04DX003 (ip), vehicle: saline) was 95 % of control, the T/C (dose: 0.44 mg/kg/injection, schedule: Q04DX003 (ip), vehicle: saline) was 120 % of control and the T/C (dose: 0.66 mg/kg/injection, schedule: Q04DX003 (ip), vehicle: saline) was 100 % of control. The T/C (dose: 1.0 mg/kg/injection, schedule: Q04DX003 (ip), vehicle: saline) was 115 % of control, the T/C (dose: 1.5 mg/kg/injection, schedule: Q04DX003 (ip), vehicle: saline) was 100 % of control and the T/C (dose: 5.0 mg/kg/injection, schedule: Q04DX003 (ip), vehicle: saline with Tween-80) was 100 % of control.
In the case of `CCOC(=O)C(C#N)C(C(C)=O)C(=O)OCC` (stereo not given), the T/C [13] is reported as 118 % of control, the T/C (dose: 25.0 mg/kg/injection, schedule: Q04DX003 (ip), vehicle: saline sonified) is reported as 95 % of control and the T/C [5] is reported as 90 % of control. The T/C (dose: 50.0 mg/kg/injection, schedule: Q04DX003 (ip), vehicle: saline sonified) was 100 % of control and the T/C (dose: 100.0 mg/kg/injection, schedule: Q04DX003 (ip), vehicle: saline sonified) was 104 % of control.
`CCOC(=O)c1cnc2c(cnn2CC)c1NN=C(C)C` was tested, and the T/C [11] was 122 % of control and the T/C [12] was 111 % of control.
`NC(=O)c1c(Cl)nc(-c2cccc([N+](=O)[O-])c2)c([N+](=O)[O-])c1C(F)(F)F` was tested, and the T/C (dose: 50.0 mg/kg/injection, schedule: Q01DX005 (ip), vehicle: saline with Tween-80) was 87 % of control, the T/C (dose: 100.0 mg/kg/injection, schedule: Q01DX005 (ip), vehicle: saline with Tween-80) was 115 % of control and the T/C (dose: 200.0 mg/kg/injection, schedule: Q01DX005 (ip), vehicle: saline with Tween-80) was 112 % of control.
With `CC(=O)Nc1ccc([I+]c2ccc([N+](=O)[O-])cc2)cc1` the T/C (dose: 12.5 mg/kg/injection, schedule: Q01DX009 (ip), vehicle: Klucel (hydroxypropylcellulose) (HPC)) was 99 % of control, the T/C (dose: 25.0 mg/kg/injection, schedule: Q01DX009 (ip), vehicle: Klucel (hydroxypropylcellulose) (HPC)) was 101 % of control and the T/C [13] was 119 % of control. For the same molecule, the T/C (dose: 75.0 mg/kg/injection, schedule: Q01DX009 (ip), vehicle: saline with Tween-80) was 116 % of control, the T/C (dose: 100.0 mg/kg/injection, schedule: Q01DX009 (ip), vehicle: Klucel (hydroxypropylcellulose) (HPC)) was 118 % of control and the T/C [6] was 115 % of control.
In the case of `COc1ccc(C(=O)N/N=C(\C)[C@]2(O)Cc3c(O)c4c(c(O)c3[C@@H](OC3CC(N)C(O)C(C)O3)C2)C(=O)c2c(OC)cccc2C4=O)cc1` (stereo not given in full), the T/C (dose: 0.25 mg/kg/injection, schedule: Q01DX009 (ip), vehicle: water) is reported as 117 % of control and 123 % of control, the T/C [1] is reported as 156 % of control and 212 % of control and the T/C [2] is reported as 275 % of control and 156 % of control. For the same molecule, the T/C [3] was 244 % of control and 107 % of control and the T/C [4] was 107 % of control.

From PubChem BioAssay AID328 (DTP/NCI, 2004)
